Literature values in patent publication US7993907B2, “Biochips and method of screening using drug induced gene and protein expression profiling” (Mowycal Lending, LLC, priority 2001, dated 2011).
Where two headings read alike, the source gives them in different places. Where no end group is shown, it is not given here. The star is where a group is joined. For = O=C*

How the values were obtained:
[1] = Indication Alzheimer's Disease
[2] = examples of hazardous chemicals
[3] = Indication Osteoporosis
[4] = Indication Breast Cancer
[5] = Indication Acute Respiratory Disease
[6] = Indication Congestive Heart Failure
[7] = test system: human peripheral blood cells; settings: cells stimulated by pro-inflammatory agents or molecules

In the case of C[C@]12CC[C@H](O)CC1=CC[C@@H]1[C@@H]2CC[C@]2(C)C(=O)CC[C@@H]12 [DHEA], the “Termination (reason drug was discontinued or terminated in FDA trials)” value (shortened to “Termination”) [1] is listed as “Results were equal”.
For CC[n+]1c(-c2ccccc2)c2cc(N)ccc2c2ccc(N)cc21 [Ethidium Bromide (EtBr), Ethidium Bromide], the Hazard [2] is given as “Mutagen”.
For CC/C(=C(\c1ccc(I)cc1)c1ccc(OCCN2CCCC2)cc1)c1ccccc1 [Idoxifene], the “Termination” value [3] is given as “Lack of efficacy” and the “Termination” value [4] is given as “Lack of efficacy”.
For C[C@@H](O)CCCCn1c(=O)c2c(ncn2C)n(C)c1=O [Lisofylline], the “Termination” value [5] is given as “Safety Board”.
In the case of ENBREL, the “Termination” value [6] is listed as “Lack of efficacy”.
In the case of f-Met-Leu-Phe-Phe (For-MLFF) [HK-X], the “Effect on pro-inflammatory responses of human peripheral blood cells” value [7] is listed as “inactivate certain pro-inflammatory responses” and the “Mechanism of action on G protein γ kinase” value (G protein γ kinase) is listed as “inhibition of G protein γ kinase”.
